Like-named read-outs stand apart in the source and are kept apart here.
Key:
Parameters in all cases: species or system AML cell lines (8); Primary HTS, single concentration about 10 uM, Cell Titer Glo viability; log10 luminescence, per cent inhibition relative to cycloheximide control
Conditions in all cases: 72 h, inhibitor
[1] = system: ML-2
[2] = system: U937
[3] = system: CMK
[4] = system: M07e
[5] = system: MV4-11
[6] = system: CMS
[7] = system: CHRF288-11
[8] = system: MOLM-13
[9] = relative to cycloheximide control, log10 luminescence

Compound	ML-2 %inh [1, 9] [%]	U937 %inh [2, 9] [%]	CMK %inh [3, 9] [%]	M07e %inh [4, 9] [%]	MV4-11 %inh [5, 9] [%]	CMS %inh [6, 9] [%]	CHRF288-11 %inh [7, 9] [%]	MOLM-13 %inh [8, 9] [%]	ML-2 %inh ([1]; 10 µM) [%]	U937 %inh ([2]; 10 µM) [%]	CMK %inh ([3]; 10 µM) [%]	M07e %inh ([4]; 10 µM) [%]	MV4-11 %inh ([5]; 10 µM) [%]	CMS %inh ([6]; 10 µM) [%]	CHRF288-11 %inh ([7]; 10 µM) [%]	MOLM-13 %inh ([8]; 10 µM) [%]
COc1ccc(COc2ccc(Cc3cnc(N)nc3N)cc2OC)cc1 [SJ000573290-1, U22490/41/5 | GW2580 | CFMS RECEPTOR TYROSINE KINASE INHIBITOR | CSF-1 RECEPTOR INHIBITOR | GW-2580 | GW2580]	2.578	5.457	9.776	0.1702	1.548	-2.221	2.429	5.043								
CCS(=O)(=O)c1ccc(OC)c(Nc2ncc(-c3ccccc3Cl)o2)c1 [SJ000573291-1, U15747/47/1]	-1.239	1.267	-1.56	-1.838	15.16	-1.399	-4.64	-0.8597								
COc1cc2ncn(-c3cc(OCc4ccccc4C(F)(F)F)c(C(C)=O)s3)c2cc1OC [SJ000573292-1, U22436/134/1]	-2.426	-1.322	-1.073	-3.084	-4.181	0.7881	-3.203	-1.507								
Cc1cccc(-c2n[nH]cc2-c2ccc3ncccc3n2)n1 [SJ000573293-1, FFJG/252/112/1 | REPSOX]	2.229	6.099	1.842	-1.053	1.439	2.179	4.75	-2.402								
Nc1nc(-c2ccc3c(c2)C(=Cc2cc(Br)c(O)c(Br)c2)C(=O)N3)cs1 [SJ000573294-1, U11298/118/1]	0.7137	-1.497	-5.127	2.045	-2.964	1.564	13.11	-2.176								
COc1cc2ncn(-c3cc(OCc4ccccc4S(C)(=O)=O)c(C#N)s3)c2cc1OC [SJ000573295-1, U24235/171/40 | IKK-3 INHIBITOR IX | CAY10576]	2.593	1.496	-4.233	3.197	0.8968	-0.09194	3.431	-1.258								
COc1ccc(-c2oc3ncnc(N)c3c2-c2ccc(NC(=O)Nc3cc(C(F)(F)F)ccc3F)cc2)cc1 [SJ000573296-1, T299/60/1]	0.8185	-2.62	1.218	-1.472	5.923	0.08626	-2.7	23.97								
CCCN1CCC(Oc2cc(Nc3nc(Nc4cccc(F)c4C(N)=O)c4cc[nH]c4n3)c(OC)cc2Cl)CC1 [SJ000573297-1, U23772/200/1]	2.245	0.7849	2.381	3.715	-2.06	-0.1818	4.97	2.944								
COc1cc(N2CCN(C(C)C)CC2)ccc1Nc1nc(Nc2ccc(F)cc2C(N)=O)c2cc[nH]c2n1 [SJ000573298-1, U22490/47/4]	34.55	43.61	61.83	44.9	68.67	47.53	127	113.4								
COC(=O)Nc1nc2cc(Oc3cccc(NC(=O)Nc4cc(C(F)(F)F)ccc4F)c3)ccc2[nH]1 [SJ000573299-1, T261/2/3]	-3.985	-3.556	4.931	-5.089	1.052	-1.053	-6.517	2.873								
COc1cc(N2CCN(C(C)C)CC2)ccc1Nc1nc(Nc2cccc3ncccc23)c2cc[nH]c2n1 [SJ000573300-1, U24088/12/1]	8.95	16.14	79.69	3.774	11.79	0.4893	47.23	33.94								
COc1cc(N2CCN(C(C)C)CC2)ccc1Nc1nc(Nc2ccc(F)cc2C(=O)NC[C@@H](O)CO)c2cc[nH]c2n1 [SJ000573301-1, U23662/84/1]	23.23	47.45	-2.061	18.85	49.16	-0.165	7.394	61.15								
COc1cc(N2CCN(C(C)C)CC2)ccc1Nc1nc(Nc2cccc(F)c2C(=O)O)c2cc[nH]c2n1 [SJ000573302-1, U24644/141/1]	1.383	-3.308	-4.539	1.407	-1.676	-1.742	2.245	-2.196								
NS(=O)(=O)c1ccc(Nc2ncc(-c3ccccc3)o2)cc1 [SJ000573303-1, U14961/32/1]									4.386	6.622	30.97	5.73	64.71	6.689	3.992	74.24
CN1CCN(CCCNc2nc3ccc(Oc4ccc(NC(=O)Nc5cc(C(F)(F)F)ccc5F)cc4)cc3[nH]2)CC1 [SJ000573304-1, T278/35/2]	1.341	2.101	2.938	5.692	57.09	2.836	-0.361	79.64								
COc1cccc(COc2cc(-n3cnc4ccccc43)sc2C(N)=O)c1 [SJ000573305-1, U17845/44/3]	3.033	5.488	1.494	2.73	0.1016	2.005	7.099	4.701								
CNC(=O)c1sc(-n2cnc3cc(OC)c(OC)cc32)cc1OCc1ccccc1C(F)(F)F [SJ000573306-1, U22436/130/1]	3.023	5.347	19.06	-3.893	7.836	0.3871	8.101	15.4								
COc1cc2ncn(-c3cc(OCc4ccccc4C(F)(F)F)c(C(=O)N(C)C)s3)c2cc1OC [SJ000573307-1, U22436/129/1]	-1.707	7.074	4.289	-4.272	8.508	-4.162	2.061	15.46								
COC(=O)c1sc(-n2cnc3cc(OC)c(OC)cc32)cc1OCc1ccccc1C(F)(F)F [SJ000573308-1, U22436/119/1]	-1.915	29.63	0.3974	0.7415	-1.071	4.6	-2.151	-0.8474								
O=C1Nc2ccccc2C1=C1CCc2cc(O)ccc21 [SJ000573309-1, C1338/186/2]	4.662	12.06	25.36	0.9027	57.39	4.291	18.33	102.5								
Nc1nccc(C#Cc2cncnc2Nc2ccc(OCc3cccc(F)c3)c(Cl)c2)n1 [SJ000573310-1, U16767/158/1]	58.71	80.64	11.36	42.98	82.16	85.29	34.34	9.977								
COc1cc(Nc2ncc3c(C)nc(-c4cccc(C(F)(F)F)c4)n3n2)cc(OC)c1OC [SJ000573311-1, U19240/54/1]	7.183	12.36	13.06	19.43	65.83	21.85	12.88	85.98								

From publication PMC6522510 (Nature Communications, 2019)
